The results in this text go back to ChEMBL document CHEMBL2406918, “Controlling persister cells of Pseudomonas aeruginosa PDO300 by (Z)-4-bromo-5-(bromomethylene)-3-methylfuran-2(5H)-one” (2013).

Structures are written as SMILES. Active and inactive are the calls of the source. The rule behind the calls is not given here.

Assay [1] concerns Pseudomonas aeruginosa. Kind of assay: Antibacterial activity against Pseudomonas aeruginosa PDO300 assessed as reduction in viable persister cells in biofilm at 20 to 60 ug/ml after 18 hrs by drop plate method relative to control. Type of assay: functional.
Assay [2] concerns Pseudomonas aeruginosa. Nature of the assay: Antibacterial activity against Pseudomonas aeruginosa PDO300 assessed as reduction in planktonic cells in biofilm after 18 hrs by drop plate method. Type of assay: functional, organism-based.
Assay [3] has as its system Pseudomonas aeruginosa. Nature of the assay: Antibacterial activity against Pseudomonas aeruginosa PDO300 assessed as reduction in biofilm formation at 60 ug/ml after 18 hrs by drop plate method relative to control. Type of assay: functional. On the set-up: scale not given: the % may be the effect or the level left.
Assay [4] deals with Pseudomonas aeruginosa. Kind of assay: Antibacterial activity against Pseudomonas aeruginosa PDO300 assessed as reduction in viable biofilm cells after 24 hrs by drop plate method. In kind it is functional, organism-based.
The subject of assay [5] is Pseudomonas aeruginosa. Kind of assay: Bactericidal activity against Pseudomonas aeruginosa PDO300 persister cells at 5 to 50 ug/ml after 2 hrs by drop plate method. In kind it is functional, organism-based.
The test system of assay [6] is Pseudomonas aeruginosa. Nature of the assay: Bactericidal activity against Pseudomonas aeruginosa PDO300 persister cells at 50 ug/ml after 2 hrs by drop plate method. In kind it is functional, organism-based.
Assay [7] relates to Pseudomonas aeruginosa. Kind of assay: Antibacterial activity against Pseudomonas aeruginosa PDO300 assessed as viable biofilm cells at 30 ug/ml after 24 hrs by drop plate method (reference value: 0.0005 +/- 0.0008%). Type of assay: functional.
In assay [8] the test system is Pseudomonas aeruginosa. Kind of assay: Antibacterial activity against Pseudomonas aeruginosa PDO300 assessed as viable persister cells at 30 ug/ml after 24 hrs by drop plate method. In kind it is functional, organism-based.
Assay [9] concerns Pseudomonas aeruginosa. Kind of assay: Antibacterial activity against Pseudomonas aeruginosa PDO300 assessed as effect on total number of suspended planktonic cells at 60 ug/ml after 18 hrs by drop plate method relative to control. Type of assay: functional, organism-based.
Assay [10] concerns Pseudomonas aeruginosa. Nature of the assay: Antibacterial activity against Pseudomonas aeruginosa PDO300 assessed as reduction in persister cells in biofilm after 18 hrs by drop plate method. Type of assay: functional, organism-based.
The test system of assay [11] is Pseudomonas aeruginosa. Nature of the assay: Antibacterial activity against Pseudomonas aeruginosa PDO300 assessed as reduction in biofilm formation after 18 hrs by drop plate method. In kind it is functional, organism-based.
The test system of assay [12] is Pseudomonas aeruginosa. Nature of the assay: Antibacterial activity against Pseudomonas aeruginosa PDO300 assessed as persister cell death in viable biofilm at 5 to 30 ug/mL after 24 hrs by drop plate method. Type of assay: functional, organism-based.
The test system of assay [13] is Pseudomonas aeruginosa. Kind of assay: Antibacterial activity against Pseudomonas aeruginosa PDO300 assessed as reduction in persistence after 12 hrs by drop plate method. Type of assay: functional, organism-based.
Assay [14] deals with Pseudomonas aeruginosa. Kind of assay: Bactericidal activity against Pseudomonas aeruginosa PDO300 persister cells at 5 ug/ml after 2 hrs by drop plate method. Type of assay: functional.
Assay [15] deals with Pseudomonas aeruginosa. Kind of assay: Antibacterial activity against Pseudomonas aeruginosa PDO300 assessed as reduction in persistence up to 30 ug/ml after 5 hrs by drop plate method. Type of assay: functional, organism-based.
Assay [16] relates to Pseudomonas aeruginosa. Nature of the assay: Antibacterial activity against Pseudomonas aeruginosa PDO300 assessed as reduction in viable persister cells in planktonic population of biofilm at 60 ug/ml after 18 hrs by drop plate method relative to control. In kind it is functional.
Assay [17] concerns Pseudomonas aeruginosa. Nature of the assay: Antibacterial activity against Pseudomonas aeruginosa PDO300 assessed as cell death in planktonic phase at 30 ug/ml after 24 hrs by drop plate method. In kind it is functional, organism-based.
In assay [18] the test system is Pseudomonas aeruginosa. Kind of assay: Antibacterial activity against Pseudomonas aeruginosa PDO300 assessed as cell viability up to 30 ug/ml after 5 hrs by drop plate method. Type of assay: functional, organism-based.
The test system of assay [19] is Pseudomonas aeruginosa. Nature of the assay: Antibacterial activity against Pseudomonas aeruginosa PDO300 assessed as reduction in persistence at 30 ug/ml after 12 hrs by drop plate method relative to control. In kind it is functional. Also noted: scale not given: the % may be the effect or the level left.
Assay [20] concerns Pseudomonas aeruginosa. Kind of assay: Antibacterial activity against Pseudomonas aeruginosa PDO300 assessed as reduction in viable persister cells in planktonic population of biofilm after 18 hrs by drop plate method. In kind it is functional, organism-based.
Assay [21] relates to Escherichia coli. Kind of assay: Antibacterial activity against Escherichia coli RP437 assessed as effect on persister cells at pH > 7. Type of assay: functional, organism-based.
Assay [22] relates to Pseudomonas aeruginosa. Kind of assay: Antibacterial activity against Pseudomonas aeruginosa PDO300 assessed as growth inhibition at 5 to 30 ug/mL after 12 hrs. Type of assay: functional, organism-based.

Consider `CC1=C(Br)/C(=C/Br)OC1=O`, for which the Activity in [1] was 98.3%; in assay [3] it was 91.6%; in assay [4] it was “Dose-dependent effect”; in [7], 0.01%; in [10], “Dose-dependent effect”; in assay [11], “Dose-dependent effect”. The Activity entry in [13] is “Dose-dependent effect”; in assay [14] it was 80.9%; in assay [16] it was 96.5%; in [19] it was 88.5%; in assay [20], “Dose-dependent effect”. For the same molecule, the result in assay [2], in assay [9], in assay [15] and in [18] was inactive. Moreover, the outcome in assay [5], in [6], in assay [8], in assay [12], in [17] and in [21] was Active. The “growth inhibition (GI)” value in assay [22] is “inactive”.
